Measurements as given in patent US20210274787A1, “USE OF A DIFLUORO-(2-HYDROXYPROPYL)PYRIDINE COMPOUND AS A FUNGICIDE FOR CONTROL OF LEAF SPOT OF SUGAR BEETS” (Dow AgroSciences LLC, priority 2016, published 2021).

System: Cercospora beticola (CERCBE), leaf spot of sugar beet
Test: Field assessment of Cercospora beticola (CERCBE) in sugar beets
Type: in vivo
Details: for % Control CERCBE (based on AUDPC): sugar beet field, natural infection
Source text: Field Assessment of Cercospora beticola (CERCBE) in Sugar Beets:
A fungicidal treatment containing an EC formulation of compound I by itself and in combination with four adjuvants was sprayed on sugar beet plants (BEAVA, Corvina variety) six times during the course of 7 weeks ([…]) under natural infection with CERCBE. The commercial standard used in the study was difenoconazole (Score) and was applied at 100 g ai/ha. The treatment was part of an experimental trial designed as a randomized complete block with four replications and a plot of approximately 1×2 m. Compound I was applied at water volume of 400 L/ha, using a backpack precision plot sprayer (BKPCKAIR, EVEN FAN TEEJET TP 8004EVS Nozzle, 1 m boom width) and pressurized at 250 kPa.
Disease severity was recorded as a percentage of visual diseased foliage on whole plot. Cercospora leaf spot infection was assessed five times, 6 days after application A (DAAA); 6 DAAC; 12 DAAB; and 7 and 21 DAAF. The disease infection was recorded following EPPO PP 1/1 (4) guideline prescriptions. Area under the disease progress curve (AUDPC) was calculated for each plot using the sets of recorded severity data. Relative AUDPC (% control based on AUDPC) was calculated as percent of the nontreated control.

Structure (SMILES) | CERCBE control compared with difenoconazole (statistical) (100 g ai/ha in 0.15% Phase II, Ethomeen, Lutensol or Agnique BP-420, ANOVA and Tukey's test (p=0.10)) | level of control of CERCBE compared with difenoconazole (numerical) (100 g ai/ha in Agnique BP-420 (50% EC formulation at 0.3% v/v) or 0.15% Lutensol) | fungicidal effect on Cercospora beticola (leaf spot of sugar beet, general statement) | % Control CERCBE (based on AUDPC) (50 g ai/ha, adjuvant Agnique BP-420 (50% w/w at 0.3% v/v)) | % Control CERCBE (based on AUDPC) (50 g ai/ha, no adjuvant) | % Control CERCBE (based on AUDPC) (100 g ai/ha, adjuvant Agnique BP-420 (50% w/w at 0.3% v/v)) | % Control CERCBE (based on AUDPC) (100 g ai/ha, adjuvant Ethomeen T18H (0.15% v/v)) | % Control CERCBE (based on AUDPC) (100 g ai/ha, adjuvant Lutensol TDA 9 (0.15% v/v)) | % Control CERCBE (based on AUDPC) (100 g ai/ha, adjuvant Phase II (0.15% v/v)) | % Control CERCBE (based on AUDPC) (100 g ai/ha, no adjuvant) | % Control CERCBE (based on AUDPC) (150 g ai/ha, adjuvant Agnique BP-420 (50% w/w at 0.3% v/v)) | % Control CERCBE (based on AUDPC) (150 g ai/ha, no adjuvant) | % Control CERCBE (based on AUDPC) (100 g ai/ha, Score (commercial standard))
N#Cc1ccc(Oc2ccc(C(F)(F)C(O)(Cn3nc[nH]c3=S)c3ccc(F)cc3F)nc2)cc1 (stereo not shown) [Compound I, 4-((6-(2-(2,4-difluorophenyl)-1,1-difluoro-2-hydroxy-3-(5-thioxo-4,5-dihydro-1H-1,2,4-triazol-1-yl)propyl)pyridin-3-yl)oxy)benzonitrile] | statistically equivalent to that of the commercial standard difenoconazole at 100 g ai/ha | numerically equivalent to that of difenoconazole at 100 g ai/ha | significant fungicidal effect | B (51-74) | B (51-74) | A (75-100) | B (51-74) | A (75-100) | B (51-74) | B (51-74) | A (75-100) | B (51-74) | –
CC1COC(Cn2cncn2)(c2ccc(Oc3ccc(Cl)cc3)cc2Cl)O1 (stereo not shown) [Difenoconazole, difenoconazole, reference compound] | – | – | – | – | – | – | – | – | – | – | – | – | A (75-100)
